Read-outs that look alike come from different tables or passages of the source.
Assays:
CYP3A4 = CYP3A4 (Homo sapiens, UniProt P08684); assay: CYP3A4 Vivid CYP450 Red fluorescent inhibition assay; type: biochemical; settings: for CYP3A4 Hillslope: variable slope sigmoidal fit, GraphPad Prism 7.0
CYP2B6 = target: T1, CYP2B6 (Homo sapiens, UniProt P20813); assay: CYP2B6 Vivid CYP450 Blue fluorescent inhibition assay; type: biochemical; settings: for CYP2B6 Hillslope: variable slope sigmoidal fit, GraphPad Prism 7.0; for IC50 Ratio: ratio of the IC50 values from the two CYPs, + indicates greater affinity for CYP2B6, – greater affinity for CYP3A4
T1 sequence (P20813 1-491): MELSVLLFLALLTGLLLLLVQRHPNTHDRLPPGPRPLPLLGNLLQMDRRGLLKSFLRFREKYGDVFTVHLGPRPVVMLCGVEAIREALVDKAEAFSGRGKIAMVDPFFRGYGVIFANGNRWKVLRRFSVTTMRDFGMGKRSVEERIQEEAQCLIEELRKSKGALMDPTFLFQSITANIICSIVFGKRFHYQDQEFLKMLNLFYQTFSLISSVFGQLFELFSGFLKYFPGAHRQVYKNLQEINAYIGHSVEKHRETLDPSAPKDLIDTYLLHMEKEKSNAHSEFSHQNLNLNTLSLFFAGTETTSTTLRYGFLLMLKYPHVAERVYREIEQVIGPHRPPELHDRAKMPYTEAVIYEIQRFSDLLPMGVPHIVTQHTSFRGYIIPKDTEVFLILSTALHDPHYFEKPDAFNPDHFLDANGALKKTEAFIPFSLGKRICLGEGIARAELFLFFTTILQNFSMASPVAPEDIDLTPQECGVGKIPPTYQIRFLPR

Sequence of CYP3A4 (P08684 whole entry): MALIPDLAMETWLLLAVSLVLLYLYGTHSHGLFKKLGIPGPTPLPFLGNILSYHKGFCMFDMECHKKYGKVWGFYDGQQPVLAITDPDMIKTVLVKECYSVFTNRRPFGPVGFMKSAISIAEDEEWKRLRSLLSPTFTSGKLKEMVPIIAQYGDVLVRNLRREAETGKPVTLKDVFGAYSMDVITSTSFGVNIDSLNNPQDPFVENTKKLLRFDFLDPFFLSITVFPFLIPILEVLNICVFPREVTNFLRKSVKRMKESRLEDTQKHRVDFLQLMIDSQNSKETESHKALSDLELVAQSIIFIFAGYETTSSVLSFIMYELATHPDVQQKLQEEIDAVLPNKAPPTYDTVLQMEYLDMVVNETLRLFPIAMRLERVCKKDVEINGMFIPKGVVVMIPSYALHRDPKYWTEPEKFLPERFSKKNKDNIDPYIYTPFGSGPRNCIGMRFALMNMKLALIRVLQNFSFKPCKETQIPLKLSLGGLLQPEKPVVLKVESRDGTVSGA

Compound | IC50 (CYP3A4; read-out: CYP3A4 IC50, CYP3A4-transfected baculosomes, concentration-response, n = 3–12) | CYP3A4 Hillslope (CYP3A4) | CYP2B6 Hillslope (CYP2B6) | IC50 (CYP2B6) | IC50 (CYP3A4) | IC50 Ratio (CYP2B6)
Nonylphenol | 6.25 µM | −1.02 | −1.21 |  |  | 
Oc1cc(Cl)ccc1Oc1ccc(Cl)cc1Cl [Triclosan] |  | −1.46 | −1.30 | 0.944 µM |  | 
C[C@]12CC[C@H]3[C@@H](CCC4=CC(=O)CC[C@@]43C)[C@@H]1CC[C@@H]2O [Testosterone] |  |  | −0.32 | 90.2 µM |  | 
CC(C)(c1ccc(O)cc1)c1ccc(O)cc1 [Bisphenol A] |  |  | −2.65 | 8.44 µM |  | 
CCCCCCCCCCCCCCCC(=O)O [Palmitic acid] |  |  |  |  | 19900 µM | 
CCOP(=S)(OCC)Oc1ccc([N+](=O)[O-])cc1 [Parathion] |  | −0.094 | −1.13 | 0.026 µM | 0.729 µM | +28.03
CCCCC/C=C\C/C=C\CCCCCCCC(=O)O [Linoleic acid] |  | −4.46 | −0.69 | 9.19 µM | 18.3 µM | 
CC/C=C\C/C=C\C/C=C\CCCCCCCC(=O)O [α-Linolenic acid] |  | −0.701 | −1.45 | 7.32 µM | 4.04 µM | 
CC1(C)C(C=C(Cl)Cl)C1C(=O)OC(C#N)c1cccc(Oc2ccccc2)c1 (stereo not drawn) [Cypermethrin] |  |  | −0.79 | 6040 µM |  | 
CCNc1nc(Cl)nc(NC(C)C)n1 [Atrazine] |  |  | −0.34 | 0.144 µM |  | 
C[C@H](CCC(=O)O)[C@H]1CC[C@H]2[C@@H]3[C@H](O)C[C@@H]4C[C@H](O)CC[C@]4(C)[C@H]3CC[C@]12C [Chenodeoxycholic acid] |  |  | −1.32 | 49 µM |  | 
C[C@H](CCC(=O)O)[C@H]1CC[C@H]2[C@@H]3CC[C@@H]4C[C@H](O)CC[C@]4(C)[C@H]3CC[C@]12C [Lithocholic acid] |  |  | −0.51 | 2.47 µM |  | 
CCCCCCCC/C=C\CCCCCCCC(=O)O [Oleic acid] |  |  | −2.45 | 9.3 µM |  | 
CCOP(=S)(OCC)Oc1nc(Cl)c(Cl)cc1Cl [Chlorpyrifos] |  |  | −2.09 | 0.0092 µM | 0.28 µM | +30.4
C[C@]12CC[C@@H]3c4ccc(O)cc4CC[C@H]3[C@@H]1CC[C@@H]2O [Estradiol] |  | −0.903 | −0.33 | 42.2 µM | 2.78 µM | 
CCCCC/C=C\C/C=C\C/C=C\C/C=C\CCCC(=O)O [Arachidonic acid] |  | −4.08 | −0.59 | 1.04 µM | 13.7 µM | 
Clc1ccccc1CN1CCc2sccc2C1 [Ticlopidine, reference compound] |  |  | −0.95 |  |  | 
O=S1OCC2C(CO1)C1(Cl)C(Cl)=C(Cl)C2(Cl)C1(Cl)Cl (stereo not drawn) [Endosulfan] |  | −0.261 | −0.66 | 0.003 µM | 0.0046 µM | 
CCOP(=S)(OCC)Oc1cc(C)nc(C(C)C)n1 [Diazinon] |  | −2.52 | −1.51 | 0.0754 µM |  | 
O=C(O)c1ccccc1C(=O)O [Phthalic acid] |  |  | −1.71 | 1170 µM |  | 
CC/C=C\C/C=C\C/C=C\C/C=C\C/C=C\C/C=C\CCC(=O)O [Docosahexaenoic acid] |  | −5.0 | −1.22 | 2.06 µM | 5.08 µM | 

Reference: paper PMC8914530 (Data in Brief, 2022)
